{"source": "paper PMC11372076", "about": "“A dual inhibitor of PIP5K1C and PIKfyve prevents SARS-CoV-2 entry into cells” (Experimental & Molecular Medicine, 2024)", "key": {"[1]": {"test_system": "Omicron variant (BA.1) spike-pseudotyped virus", "format": "cell-based, SARS-CoV-2"}, "[2]": {"test_system": "Delta variant (B.1.617.2) spike-pseudotyped virus", "format": "cell-based, SARS-CoV-2"}}, "data": [{"smiles": "c1ccc(-c2cc(Nc3nc(-c4ccncc4)nc4ccccc34)n[nH]2)cc1", "note": "[UNI418, N -(5-phenyl-1 H -pyrazol-3-yl)-2-(4-pyridinyl)-4-quinazolinamine]", "values": [{"measurement": "pseudotyped virus entry", "setting": "[1]", "result": "markedly inhibited"}, {"measurement": "pseudotyped virus entry", "setting": "[2]", "result": "markedly inhibited"}]}]}
